Like-named read-outs stand apart in the source and are kept apart here.
Legend:
mushroom tyrosinase [1] = biological target: mushroom tyrosinase (Agaricus bisporus, UniProt C7FF04); assay: Kinetic study of mushroom tyrosinase inhibition (Lineweaver–Burk and Dixon plots); assay type: biochemical; details: substrate L-dopa 0.5–16 mM
Method: The initial rate of dopachrome generation was examined at various BMTTZD analog concentrations (0, 1.5, 3, and 6 µM for analog 1; 0, 2, 4, and 8 µM for analogs 2 and 5; and 0, 0.05, 0.1, and 0.2 µM for 3) with 0.5, 1, 2, 4, 8, or 16 mM L-dopa as substrates using mushroom tyrosinase. Plotting the reciprocal of the dopachrome formation rate against the inverse of the L-dopa concentration produced Lineweaver–Burk plots (Figure 2). Each Lineweaver–Burk plot created four straight lines with different slopes. For analogs 1 and 3, the four straight lines met at a point on the y-axis, whereas for analogs 2 and 5, the four straight lines converged at a point in the second quadrant.
The Dixon plots produced lines that met in the second quadrant. The x-coordinate of the convergence position represents the inhibition constant (Ki) of the ligand.
Lineweaver–Burk (L-B) plots were acquired for the kinetic analysis of analogs against mushroom tyrosinase as previously described. In brief, 10 µL of a solution of DMSO and BMTTZD analogs 1–3 or 5 (final concentrations: 0, 1.5, 3, and 6 µM for analog 1; 0, 2, 4, and 8 µM for analogs 2 and 5; and 0, 0.05, 0.1, and 0.2 µM for analog 3) in each well of a 96-well plate was mixed with 20 µL of aqueous mushroom tyrosinase solution (200 units/mL) and 170 µL of an aqueous substrate mixture (various concentrations of L-dopa (final concentrations: 16, 8, 4, 2, 1 and 0.5 mM) and 17.2 mM sodium phosphate buffer (pH 6.5)). During incubation (15 min at 37 °C), the increase in the well absorbance (ΔOD475/min) was calculated at 1 min intervals utilizing a VersaMax® reader.

[2] = DPPH radical scavenging activity assay; details: 500 µM
Method: First, the ability of BMTTZD analogs 1–8 to scavenge DPPH radicals was examined using L-ascorbic acid (vitamin C; positive control). All samples were tested at 500 µM.
The ability of the BMTTZD analogs to scavenge DPPH radicals was evaluated as previously reported. To each well of a 96-well plate containing analogs 1–8 (5 mM in […]; 20 µL) was added a DPPH solution (0.2 mM in methanol; 180 µL). The mixture was kept in a place without light for 30 min at 25°C to generate DPPH radicals. The well absorbance at 517 nm was measured utilizing a VersaMax® reader. The ability of the analogs to remove DPPH radicals was compared to that of vitamin C.

[3] = ABTS+ radical scavenging activity assay; details: 100 µM
Method: Second, the ability of BMTTZD analogs to scavenge ABTS^+ radicals was examined. ABTS^+ radicals were obtained via the oxidation of ABTS using potassium persulfate. All samples (Trolox (positive control) and 1–8) were tested at 100 µM.
The ability of the BMTTZD analogs to scavenge ABTS^+ radicals was assessed as previously described, with minor modifications. To a 50 mL tube were added 20 mL aqueous K2S2O8 solution (2.45 mM) and 20 mL aqueous ABTS solution (7 mM). The combined mixture was placed at 22 °C in a place without light for 17 h to generate the ABTS^+ radicals. For adequate absorbance control (0.70 ± 0.02 at 734 nm), methanol was added to the combined mixture. Test compounds (Trolox and analogs 1–8; 10 µL in 10% DMSO/90% EtOH [v/v] solution) were mixed with 90 µL ABTS^+ radical solution. After storage in a place without light for 2 min, the well absorbance at 734 nm was acquired for 10 min every 1 min by using a microplate reader (VersaMax®). All test compounds were tested at 100 µM. The activity of the analogs was compared to that of Trolox.

B16F10 cells = assay: Cell cytotoxicity test (EZ-Cytox); assay type: cell-based, murine; details: 2.5–20 µM, 48 and 72 h
Method: Because analogs 1–3 and 5 exerted potent mushroom tyrosinase inhibitory activities, their effects on anti-melanogenic and cellular tyrosinase activities were evaluated in B16F10 murine cells. Prior to examining their cellular activity, their cell viabilities were investigated. Cell viability was evaluated at 48 and 72 h after treatment with five different concentrations of analogs.
The effect on B16F10 cytotoxicity was assessed following a previously described method. Cells (1 × 10^4 cells/well of a 96-well plate) were cultivated for 24 h with 5% CO2 at 37 °C. The cells were exposed to the BMTTZD analogs (test concentrations: 20, 10, 5, 2.5, and 0 µM) and cultivated with 5% CO2 at 37 °C for 72 h. An EZ-Cytox solution (10 µL; EZ-500, DoGenBio, Seoul, Republic of Korea) was exposed to each well, and the plate was cultivated for 2 h. Cell viability was calculated from the well absorbance measured at 450 nm utilizing a reader (VersaMax®).

mushroom tyrosinase [4] = assay: Mushroom tyrosinase inhibition assay (dopachrome, 475 nm); assay type: biochemical; details: for IC50: mushroom tyrosinase
Method: The ability of the BMTTZD analogs to inhibit mushroom tyrosinase was evaluated in the presence of L-dopa and L-tyrosine as previously described.

[5] = In vitro ROS scavenging activity assay (SIN-1, DCFH-DA/esterase); details: test sample 40 µM; SIN-1 10 µM
Method: Third, the ability of analogs 1–8 to scavenge in vitro ROS was determined. Esterase was mixed with 2′,7′-dichlorodihydrofluorescein diacetate (DCFH-DA) to produce 2′,7′-dichlorodihydrofluorescein (DCFH). 3-Morpholinosydnonimine (SIN-1) generates ROS that react with DCFH, resulting in the formation of DCF (2′,7′-dichlorofluorescein). Therefore, the ability of analogs 1–8 to scavenge ROS was calculated by measuring the fluorescence of DCF with 10 µM SIN-1 and 40 µM test samples (Trolox (positive control) and analogs 1–8). […] The ability of analogs to scavenge ROS was examined as previously described. To a 15 mL tube were added DCFH-DA solution (1.25 mM; 50 µL), phosphate buffer (50 mM, 4.9 mL), and esterase (600 units/mL; 50 µL). The esterase–DCFH-DA solution was left in a dark place for 30 min. A 10 µL SIN-1 solution was added to each well of a black 96-well plate and mixed with phosphate buffer (180 µL) and Trolox (10 µL) or analogs 1–8 (10 µL). SIN-1, Trolox, and analogs 1–8 were treated at 10, 40, and 40 µM, respectively. After 5 min, 50 µL of the esterase–DCFH-DA solution was added to each well. The well fluorescence of DCF was acquired at 535 nm utilizing a microplate reader (Berthold Advances GmbH & Co., Bad Wildbad, Germany) using a 485 nm excitation wavelength. Trolox was used to compare ROS scavenging activity.

Sequence of mushroom tyrosinase (Agaricus bisporus, UniProt C7FF04) (C7FF04 1-392): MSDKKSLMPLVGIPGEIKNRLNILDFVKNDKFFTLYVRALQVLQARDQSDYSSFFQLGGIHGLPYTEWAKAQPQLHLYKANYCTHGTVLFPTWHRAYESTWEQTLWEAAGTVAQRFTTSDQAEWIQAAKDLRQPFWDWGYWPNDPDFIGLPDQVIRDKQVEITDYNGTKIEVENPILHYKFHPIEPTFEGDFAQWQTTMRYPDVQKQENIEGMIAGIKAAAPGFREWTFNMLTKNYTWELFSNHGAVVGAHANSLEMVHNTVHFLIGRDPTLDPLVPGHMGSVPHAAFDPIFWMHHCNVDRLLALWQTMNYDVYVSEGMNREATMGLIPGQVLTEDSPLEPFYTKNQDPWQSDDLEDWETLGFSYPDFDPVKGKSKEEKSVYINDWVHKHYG

Structure (SMILES)	type of tyrosinase inhibition (Lineweaver–Burk plots) (mushroom tyrosinase [1])	DPPH radical scavenging activity [2]	ABTS^+ radical scavenging activity [3]	cytotoxicity (cell viability) (B16F10 cells)	tyrosinase inhibition, fold stronger than kojic acid (mushroom tyrosinase [4]; substrate L-dopa)	IC50 (mushroom tyrosinase [4]; substrate L-dopa, read-out: IC50 (Mean ± SEM, µM) L-Dopa)	IC50 (mushroom tyrosinase [4]; substrate L-tyrosine, read-out: IC50 (Mean ± SEM, µM) L-Tyrosine)	effect on SIN-1-induced ROS levels [5]
CN1C(=O)/C(=C/c2ccc(O)c(O)c2)SC1=S [Analog 2, (Z)-5-(3,4-Dihydroxybenzylidene)-3-methyl-2-thioxothiazolidin-4-one]	mixed-type inhibitors	93%	92%	significant cytotoxicity in a concentration-dependent manner, even at 2.5 µM	four times stronger than kojic acid	6.18 ± 0.17 µM	3.77 ± 0.47 µM	–
Cc1c(C)c2c(c(C)c1O)CCC(C)(C(=O)O)O2 (stereo not drawn) [Trolox, reference compound]	–	–	95%	–	–	–	–	significantly decreased the SIN-1-induced ROS contents
